Experimental data from patent US20240174723A1, “STAPLED ANTIMICROBIAL PEPTIDES (STAMPS) AND USES THEREOF” (Lytica Therapeutics, Inc., priority 2021, published 2024).
Converted amounts (≈) assume the structure as drawn. Positions of bridges follow the written chain, without caps; N, C: chain ends. Non-standard residues stand in square brackets, D forms with d. Residues, ends and D or L forms follow the SMILES beside them. S5 = C=CCCC[C@](C)(N)C(=O)O

Columns and labels:
E. coli = type: cell-based, Escherichia coli
In short: (§1)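 Read-out is visible growth: the MIC is the minimum peptide concentration showing none after 20-24 h at 37 °C. Peptides were serially diluted from water stocks and mixed with log-phase bacteria (final 5×10^5 CFU/ml) in Mueller-Hinton or cation-adjusted Mueller-Hinton broth.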

A. baumannii = type: cell-based, Acinetobacter baumannii
In short: as §1

P. aeruginosa = type: cell-based, Pseudomonas aeruginosa
In short: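 Broth microdilution adapted from CLSI in MHB or cation-adjusted MHB; log-phase P. aeruginosa at 5×10^5 CFU/ml final with serially diluted stapled peptides. Incubated 20-24 h at 37 °C; MIC is the lowest concentration without visible growth.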

K. pneumoniae = type: cell-based, Klebsiella pneumoniae
In short: as §1

S. aureus = type: cell-based, Staphylococcus aureus
In short: as §1

in vitro [1] = type: cell-based; conditions: human
In short: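 RPTEC or HepG2 cells plated overnight, given fresh media, then serial StAMP dilutions (from 5 mg/mL water stock) or vehicle at 37 °C. Cytotoxicity read as LDH release into media, absorbance 490 nm; renal toxicity after 90 min, liver toxicity after 48 h incubation.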

in vitro [2] = type: cell-based; conditions: human, Inhibitory Concentration at 50% Cytotoxicity (IC50) Human Liver Cells (HepG2)
In short: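 HepG2 cells in EMEM with 10% FBS, allowed 4 h to attach, then exposed to serial dilutions of StAMPs (from a 5 mg/mL water stock) or vehicle. After 48 h at 37 °C, viability read by CellTiter-Glo luminescence.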

SMILES	Minimum Inhibitory Concentration (MIC) E. coli (E. coli) [µg/mL]	Minimum Inhibitory Concentration (MIC) A. baumannii (A. baumannii) [µg/mL]	Minimum Inhibitory Concentration (MIC) P. aeruginosa (P. aeruginosa) [µg/mL]	Minimum Inhibitory Concentration (MIC) K. pneumoniae (K. pneumoniae) [µg/mL]	Minimum Inhibitory Concentration (MIC) S. aureus (S. aureus) [µg/mL]	IC50 at 90 min (in vitro [1]) [µg/mL]	IC50 at 48 hours (in vitro [2]) [µg/mL]
CC(C)[C@@H]1NC(=O)[C@@](C)(NC(=O)[C@H](C)NC(=O)[C@H](CCCCN)NC(=O)CNC(=O)[C@H](Cc2ccccc2)NC(=O)[C@H](CCCCN)NC(=O)[C@H](CCCCN)NC(=O)[C@H](CCCCN)NC(=O)[C@H](CCC(N)=O)NC(=O)[C@H](Cc2c[nH]cn2)NC(=O)[C@]2(C)CCCC=CCCC[C@](C)(NC(=O)CN)C(=O)NCC(=O)N[C@@H](CCCCN)C(=O)N[C@@H](Cc3ccccc3)C(=O)N2)CCCC=CCCC[C@@](C)(C(=O)N[C@@H](C)C(=O)N[C@@H](CCCCN)C(=O)N[C@@H](CCCCN)C(N)=O)NC(=O)[C@H](CCC(=O)O)NC(=O)CNC1=O [compound 7] (H-G[S5]GKF[S5]HQKKKFGKA[S5]VGE[S5]AKK-NH2; staple 2-6, 16-20)	6	4	8	>64	>64	> 200	> 200
CC(C)[C@@H]1NC(=O)[C@@](C)(NC(=O)[C@H](C)NC(=O)[C@H](CCCCN)NC(=O)CNC(=O)[C@H](Cc2ccccc2)NC(=O)[C@H](CCCCN)NC(=O)[C@H](CCCCN)NC(=O)[C@H](CCCCN)NC(=O)[C@@H](NC(=O)[C@H](Cc2c[nH]cn2)NC(=O)[C@]2(C)CCCC=CCCC[C@](C)(NC(=O)CN)C(=O)NCC(=O)N[C@@H](CCCCN)C(=O)N[C@@H](Cc3ccccc3)C(=O)N2)[C@@H](C)O)CCCC=CCCC[C@@](C)(C(=O)N[C@@H](C)C(=O)N[C@@H](CCCCN)C(=O)N[C@@H](CCCCN)C(N)=O)NC(=O)[C@H](CCC(=O)O)NC(=O)CNC1=O [compound 8] (H-G[S5]GKF[S5]HTKKKFGKA[S5]VGE[S5]AKK-NH2; staple 2-6, 16-20)	8	4	8	>64	>64	> 200	> 200
CC(C)[C@@H]1NC(=O)[C@@](C)(NC(=O)[C@H](C)NC(=O)[C@H](CCCCN)NC(=O)CNC(=O)[C@H](Cc2ccccc2)NC(=O)[C@H](CCCCN)NC(=O)[C@H](CCCCN)NC(=O)[C@H](CCCCN)NC(=O)[C@H](Cc2ccc(O)cc2)NC(=O)[C@H](Cc2c[nH]cn2)NC(=O)[C@]2(C)CCCC=CCCC[C@](C)(NC(=O)CN)C(=O)NCC(=O)N[C@@H](CCCCN)C(=O)N[C@@H](Cc3ccccc3)C(=O)N2)CCCC=CCCC[C@@](C)(C(=O)N[C@@H](C)C(=O)N[C@@H](CCCCN)C(=O)N[C@@H](CCCCN)C(N)=O)NC(=O)[C@H](CCC(=O)O)NC(=O)CNC1=O [compound 9] (H-G[S5]GKF[S5]HYKKKFGKA[S5]VGE[S5]AKK-NH2; staple 2-6, 16-20)	8	4	16	>64	>64	> 200	> 200
CC(C)[C@@H]1NC(=O)[C@H](C(C)C)NC(=O)[C@@](C)(NC(=O)[C@H](C)NC(=O)[C@H](CCCCN)NC(=O)CNC(=O)[C@H](Cc2ccccc2)NC(=O)[C@H](CCCCN)NC(=O)[C@H](CCCCN)NC(=O)[C@H](CCCCN)NC(=O)[C@H](CO)NC(=O)[C@H](Cc2c[nH]cn2)NC(=O)[C@]2(C)CCCC=CCCC[C@](C)(NC(=O)CN)C(=O)NCC(=O)N[C@@H](CCCCN)C(=O)N[C@@H](Cc3ccccc3)C(=O)N2)CCCC=CCCC[C@@](C)(C(=O)N[C@@H](C)C(=O)N[C@@H](CCCCN)C(=O)N[C@@H](CCCCN)C(N)=O)NC(=O)[C@H](CCC(=O)O)NC1=O [compound 11] (H-G[S5]GKF[S5]HSKKKFGKA[S5]VVE[S5]AKK-NH2; staple 2-6, 16-20)	2	2	6	7	>64	203 (≈ 78.9 µM)	227 (≈ 88.2 µM)
CC(C)C[C@@H]1NC(=O)[C@H](C(C)C)NC(=O)[C@@](C)(NC(=O)[C@H](C)NC(=O)[C@H](CCCCN)NC(=O)CNC(=O)[C@H](Cc2ccccc2)NC(=O)[C@H](CCCCN)NC(=O)[C@H](CCCCN)NC(=O)[C@H](CCCCN)NC(=O)[C@H](CO)NC(=O)[C@H](Cc2c[nH]cn2)NC(=O)[C@]2(C)CCCC=CCCC[C@](C)(NC(=O)CN)C(=O)NCC(=O)N[C@@H](CCCCN)C(=O)N[C@@H](Cc3ccccc3)C(=O)N2)CCCC=CCCC[C@@](C)(C(=O)N[C@@H](C)C(=O)N[C@@H](CCCCN)C(=O)N[C@@H](CCCCN)C(N)=O)NC(=O)[C@H](CCC(=O)O)NC1=O [compound 12] (H-G[S5]GKF[S5]HSKKKFGKA[S5]VLE[S5]AKK-NH2; staple 2-6, 16-20)	2	2	4	4	>64	~200 (≈ 77.3 µM)	~200 (≈ 77.3 µM)
CC(C)[C@@H]1NC(=O)[C@@](C)(NC(=O)[C@H](C)NC(=O)[C@H](CCCCN)NC(=O)CNC(=O)[C@H](Cc2ccccc2)NC(=O)[C@H](CCCCN)NC(=O)[C@H](CCCCN)NC(=O)[C@H](CCCCN)NC(=O)[C@H](CO)NC(=O)[C@H](Cc2c[nH]cn2)NC(=O)[C@]2(C)CCCC=CCCC[C@](C)(NC(=O)CN)C(=O)NCC(=O)N[C@@H](CCCCN)C(=O)N[C@@H](Cc3ccccc3)C(=O)N2)CCCC=CCCC[C@@](C)(C(=O)N[C@@H](C)C(=O)N[C@@H](CCCCN)C(=O)N[C@@H](CCCCN)C(N)=O)NC(=O)[C@H](CCC(=O)O)NC(=O)[C@H](Cc2ccc(O)cc2)NC1=O [compound 13] (H-G[S5]GKF[S5]HSKKKFGKA[S5]VYE[S5]AKK-NH2; staple 2-6, 16-20)	3	2	4	8	>64	> 200	> 200
CC(C)[C@@H]1NC(=O)[C@@](C)(NC(=O)[C@H](C)NC(=O)[C@H](CCCCN)NC(=O)CNC(=O)[C@H](Cc2ccccc2)NC(=O)[C@H](CCCCN)NC(=O)[C@H](CCCCN)NC(=O)[C@H](CCCCN)NC(=O)[C@H](CO)NC(=O)[C@H](Cc2c[nH]cn2)NC(=O)[C@]2(C)CCCC=CCCC[C@](C)(NC(=O)CN)C(=O)NCC(=O)N[C@@H](CCCCN)C(=O)N[C@@H](Cc3ccccc3)C(=O)N2)CCCC=CCCC[C@@](C)(C(=O)N[C@@H](C)C(=O)N[C@@H](CCCCN)C(=O)N[C@@H](CCCCN)C(N)=O)NC(=O)[C@H](CCC(=O)O)NC(=O)[C@H](Cc2ccccc2)NC1=O [compound 14] (H-G[S5]GKF[S5]HSKKKFGKA[S5]VFE[S5]AKK-NH2; staple 2-6, 16-20)	2	2	4	4	>64	214 (≈ 81.6 µM)	222 (≈ 84.7 µM)
CC(C)[C@@H]1NC(=O)[C@@](C)(NC(=O)[C@H](C)NC(=O)[C@H](CCCCN)NC(=O)CNC(=O)[C@H](Cc2ccccc2)NC(=O)[C@H](CCCCN)NC(=O)[C@H](CCCCN)NC(=O)[C@H](CCCCN)NC(=O)[C@H](CO)NC(=O)[C@H](Cc2c[nH]cn2)NC(=O)[C@]2(C)CCCC=CCCC[C@](C)(NC(=O)CN)C(=O)NCC(=O)N[C@@H](CCCCN)C(=O)N[C@@H](Cc3ccccc3)C(=O)N2)CCCC=CCCC[C@@](C)(C(=O)N[C@@H](C)C(=O)N[C@@H](CCCCN)C(=O)N[C@@H](CCCCN)C(N)=O)NC(=O)[C@H](CCC(=O)O)NC(=O)[C@H]([C@@H](C)O)NC1=O [compound 15] (H-G[S5]GKF[S5]HSKKKFGKA[S5]VTE[S5]AKK-NH2; staple 2-6, 16-20)	6	2	8	16	>64	> 200	> 200
